Target: MDM2 (Homo sapiens, UniProt Q00987)
Assay: Fluorescence polarization
Type: binding
Conditions: FP; 4-chloro-phenyl anchor instead of 6-chloro-indole

MDM2, sequence (Q00987 whole entry): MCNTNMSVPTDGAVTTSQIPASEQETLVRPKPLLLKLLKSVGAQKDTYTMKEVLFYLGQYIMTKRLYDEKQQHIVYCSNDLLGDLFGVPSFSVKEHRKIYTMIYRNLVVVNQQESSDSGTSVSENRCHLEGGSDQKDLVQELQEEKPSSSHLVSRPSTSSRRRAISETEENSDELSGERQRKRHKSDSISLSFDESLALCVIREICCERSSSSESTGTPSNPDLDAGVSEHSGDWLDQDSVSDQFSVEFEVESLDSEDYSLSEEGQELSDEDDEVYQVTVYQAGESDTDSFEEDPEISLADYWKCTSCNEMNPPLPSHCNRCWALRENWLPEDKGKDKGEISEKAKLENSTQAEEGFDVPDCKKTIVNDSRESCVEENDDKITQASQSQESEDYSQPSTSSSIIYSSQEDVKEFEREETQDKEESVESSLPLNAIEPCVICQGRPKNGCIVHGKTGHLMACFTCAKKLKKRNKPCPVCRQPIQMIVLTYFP

## CC(C)(C)NC(=O)C(c1ccc(Cl)cc1)N1C(=O)CC1c1ccc(OCc2ccccc2)cc1 (stereo not shown) [Compound 2g]
  activity against MDM2/X: did not show any activity
